Results taken from patent publication US20240041876A1, “PHARMACEUTICAL COMPOSITION FOR PREVENTION OR TREATMENT OF DEGENERATIVE BRAIN DISEASES COMPRISING ABEMACICLIB AS ACTIVE INGREDIENT” (priority 2020, published 2024).

Tests used:
BV2 microglia = test: MTT assay, cytotoxicity to BV2 microglia; type: cell-based; conditions: 0.1, 1, 5, 10, 25, or 50 μM; 24 hours in the absence of FBS
Method: Cell viability was measured using the 3-(4,5-dimethylthiazol-2-yl)-2,5-diphenyltetrazolium bromide (MTT) assay. BV2 microglia were seeded in a 96-well plate and treated with various concentrations of abemaciclib mesylate (0.1, 1, 5, 10, 25, 50 μM) for 24 hours in the absence of FBS. Then, the cells were treated with 0.5 mg/ml MTT and incubated at 37° C. for 3 hours in a 5% CO2 incubator, and absorbance was measured at 580 nm.
To determine whether or not abemaciclib is cytotoxic to BV2 microglia, BV2 microglia were treated with abemaciclib at different concentrations (0.1, 1, 5, 10, 25, or 50 μM) and then MTT assay was performed.

5×FAD mice [1] = test: Abemaciclib versus donepezil: cognitive function in 5×FAD mice (Y maze, NOR); type: in vivo, mouse; conditions: abemaciclib 30 mg/kg or donepezil 1 mg/kg intraperitoneal daily for 14 days
Method: Then, percent alteration=(number of alterations/number of triads)×100 was obtained and used as a parameter of short-term memory. • Alteration: 1 point awarded when the mouse enters three different arms in turn • Triads: Total visits—2
The animal was allowed to start from the center of the box, and the time at which the animal was interested in the object was recorded for 5 minutes. After 24 hours, one of the two objects was replaced with fresh one, the times at which the mouse approached the old object and the fresh object were measured, and the preference for the new object was analyzed and used as a long-term memory analysis index.

5×FAD mice [2] = test: Abemaciclib versus donepezil: astrocyte activity in 5×FAD mice (anti-GFAP, anti-6E10); type: in vivo, mouse; conditions: abemaciclib 30 mg/kg or donepezil 1 mg/kg intraperitoneal daily for 14 days
5×FAD mice [3] = test: Abemaciclib versus donepezil: tau kinases phospho-GSK-3β and DYRK1A in 5×FAD mice; type: in vivo, mouse; conditions: abemaciclib 30 mg/kg or donepezil 1 mg/kg intraperitoneal daily for 14 days
Method: F1-generation male 5×FAD mice (stock #34848-JAX, B6Cg-Tg APPSwF1Lon, PSEN1*M146L*L286V6799Vas/Mmjax) purchased from Jackson Laboratory were used. 5×FAD mice (3 months old) were bred in a sterile facility under 12-hour light/dark controlled conditions at an ambient temperature of 22° C. After daily administration of abemaciclib (30 mg/kg, intraperitoneal administration) or vehicle (10% DMSO) to 5×FAD mice for 14 days, Y maze test on day 15 and NOR test on day 16 to 17 were performed, followed by fluorescent tissue staining or Golgi staining.
Then, each brain section was subjected to immunohistochemical staining. Brain sections were rinsed in PBS and permeabilized for 1 hour at room temperature using PBS containing 0.2% Triton X-100 and 1% BSA. Then, the primary antibody was diluted in PBST (0.2% Triton X-100 in PBS) and reacted at 4° C. for 24 hours, and the next day, the tissue was washed three times with PBST, and then reacted with a secondary antibody bound with a fluorescent signal at room temperature for 2 hours. Then, the brain sections were washed three times with PBS, placed on slides, and observed under a fluorescence microscope.

Row | Compound | cytotoxicity to BV2 microglia (MTT assay) (BV2 microglia) | short-term memory (Y maze) (5×FAD mice [1]; day 15) | long-term memory (NOR test) (5×FAD mice [1]; day 16-17) | number of astrocytes directly interacting with amyloid plaques (5×FAD mice [2]) | expression of DYRK1A, a tau kinase, in the cortex (5×FAD mice [3]) | expression of DYRK1A, a tau kinase, in the hippocampus (5×FAD mice [3]) | hippocampal phospho-GSK-3β levels (5×FAD mice [3])
1 | CCN1CCN(Cc2ccc(Nc3ncc(F)c(-c4cc(F)c5nc(C)n(C(C)C)c5c4)n3)nc2)CC1 [abemaciclib] | did not induce cytotoxicity | – | – | – | – | – | –
2 | COc1cc2c(cc1OC)C(=O)C(CC1CCN(Cc3ccccc3)CC1)C2 (stereo not shown) [donepezil] | – | improved | improved | reduced | reduced | reduced | reduced
